Results on 4 compounds are retold here after US10253081B2, “Glucagon analogues” (Zealand Pharma A/S, priority 2012, dated 2019).

Like-named read-outs stand apart in the source and are kept apart here. *1 amine or outer side, *2 acyl side, *3 side chain or, on linkers, in order; H or OH if unused. Where a SMILES comes first, the peptide text is derived from it. Side-chain parts run from the residue outwards. [ ]: non-standard residue; d: D form. The star is where a group is joined. γGlu = O=C(O)[C@H](CCC(=O)[*:2])N[*:1]; Palmitoyl = CCCCCCCCCCCCCCCC(=O)*; Aib = CC(C)(N)C(=O)O

Data set [1] addresses T1, human glucagon-like peptide 1 receptor (GLP-1R) (Homo sapiens, UniProt P43220).
T1 construct: expressed in transfected cells
The data set can be described thus: GLP-1 receptor efficacy assay (cAMP AlphaScreen, CHO cells). Type of data set: cell-based. Particulars: Table 1A; for EC50: CHO cells expressing human GLP-1-R, cAMP, read-out: EC50 hGLP-1R CHO-K1; for Ratio GLP-1/Glucagon: EC50 [GLP-1R]/EC50 [Glucagon-R]. Put shortly:
(§1)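 Stably transfected CHO clones expressing human GLP-1R or glucagon receptor were treated with increasing peptide concentrations for 15 min at room temperature in KRBH containing 0.1 mM IBMX. After lysis, cAMP was quantified by AlphaScreen; EC50 and efficacy relative to GLP-1 or glucagon reference came from curve fitting.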

The nature of data set [2]: Pharmacokinetic parameters after subcutaneous and intravenous administration to mice. Format: in vivo. Particulars: male, mouse, plasma, 20 nmol/kg, C57Bl/6J mice; for half-life: read-out: Terminal half life (converted); for MRT: read-out: Mean Residence Time. The method, then:
Pharmacokinetic parameters of the test compounds were determined after subcutaneous and intravenous administration to C57Bl/6J mice.
8 week old male C57Bl/6J mice were obtained from Taconic (Denmark) weighing approximately 20-25 g at time of arrival at the test facility. The mice were caged in European standard cages type III with light cycle of 12-hour dark and 12-hour light (lights on 06.00). Both diet, Altromin 1324 (Altromin, Germany), and water was administered ad libitum during the whole experimental period. The 8-11 week animals were imported to the laboratory at least 7 days before the start up of the experimental procedure in order to assure proper acclimatization. After sampling the mice were euthanized by cervical dislocation.
The compounds were first dissolved in 0.096% aqueous ammonia to a nominal concentration of 2 mg/ml, and then diluted to the desired dosing strength (4 μM) in sterile PBS containing 25 mM phosphate buffer, pH 7.4. Subcutaneous and intravenous injections corresponding to 20 nmol/kg were given. The GLP-1-glucagon dual agonists were administered for subcutaneous dosing in the neck region and via a lateral tail vein for intravenous dosing.
Blood samples (250 μl) were collected from the periorbital plexus at time points 0.5, 2, 4, 6, 12, 16, 20, 24 h for subcutaneous and 10, 30 min, 3, 6, 12, 18, 24 h for intravenous administration into ice-chilled K3EDTA tubes and centrifuged for 5 minutes at 4° C. within 20 minutes of sampling. Plasma (>100 μl) was separated to ice-chilled Micronic tubes, immediately frozen, and kept at −70° C. until analysed for plasma concentration for the respective GLP-1-glucagon compound using LC-MS/MS. Individual plasma concentration-time profiles were analysed by a non-compartmental approach in WinNonLin v6.3 (Pharsight inc, Mountain View, Calif., USA), and the resulting pharmacokinetic parameters determined.

Data set [3] concerns the target T2, human glucagon receptor (Glucagon-R) (Homo sapiens, UniProt P47871).
T2 construct: expressed in transfected cells
The data set can be described thus: Glucagon receptor efficacy assay (cAMP AlphaScreen, CHO cells). Format: cell-based. As to conditions: Table 1A; CHO cells expressing human Glucagon-R, cAMP; read-out: EC50 hGCGR CHO-K1. Put shortly:
as §1

Data set [4] in a line: Oral glucose tolerance test (OGTT). Format: in vivo, C57BL/6J mice. Particulars: blood glucose AUC 0-120 min, 10 nmol/kg s.c. 4 h before oral glucose 2 g/kg. The protocol:
Male C57BL/6J mice were fasted for 10 h before they received an oral glucose bolus of 2 g/kg body weight. Peptides were dissolved in saline buffered with 25 mM phosphate and administered at a dose of 10 nmol/kg body weight by subcutaneous injection 4 h before the glucose bolus. Control animals received a vehicle injection only. Group size was 7 animals per group. A pre-dose and a pre-glucose (0 min) blood sample were obtained by tail bleeding and blood glucose was measured with a glucometer. Additional samples of tail blood for measuring blood glucose were obtained 15 min, 30 min, 60 min, 90 min and 120 min after the glucose challenge. […] Calculation of AUC was done by the trapezoidal rule without baseline correction. The data are presented as mean±S.E.M. Statistical comparisons were conducted by one-way ANOVA followed by Tukey's post test. Vehicle alone was used as a control.

T1 sequence (P43220 24-463): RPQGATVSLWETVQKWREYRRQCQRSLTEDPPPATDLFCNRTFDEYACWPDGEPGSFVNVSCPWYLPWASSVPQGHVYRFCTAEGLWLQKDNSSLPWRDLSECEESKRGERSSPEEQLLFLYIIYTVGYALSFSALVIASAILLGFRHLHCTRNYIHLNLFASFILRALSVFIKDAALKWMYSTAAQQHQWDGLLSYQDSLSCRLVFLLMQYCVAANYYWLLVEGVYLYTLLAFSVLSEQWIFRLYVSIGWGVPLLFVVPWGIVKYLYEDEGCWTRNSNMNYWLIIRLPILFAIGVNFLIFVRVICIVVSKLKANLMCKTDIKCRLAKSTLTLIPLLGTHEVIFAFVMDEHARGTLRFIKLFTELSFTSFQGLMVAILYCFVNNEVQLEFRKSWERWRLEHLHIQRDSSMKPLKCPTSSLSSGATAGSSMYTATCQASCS
T2 sequence (P47871 26-477): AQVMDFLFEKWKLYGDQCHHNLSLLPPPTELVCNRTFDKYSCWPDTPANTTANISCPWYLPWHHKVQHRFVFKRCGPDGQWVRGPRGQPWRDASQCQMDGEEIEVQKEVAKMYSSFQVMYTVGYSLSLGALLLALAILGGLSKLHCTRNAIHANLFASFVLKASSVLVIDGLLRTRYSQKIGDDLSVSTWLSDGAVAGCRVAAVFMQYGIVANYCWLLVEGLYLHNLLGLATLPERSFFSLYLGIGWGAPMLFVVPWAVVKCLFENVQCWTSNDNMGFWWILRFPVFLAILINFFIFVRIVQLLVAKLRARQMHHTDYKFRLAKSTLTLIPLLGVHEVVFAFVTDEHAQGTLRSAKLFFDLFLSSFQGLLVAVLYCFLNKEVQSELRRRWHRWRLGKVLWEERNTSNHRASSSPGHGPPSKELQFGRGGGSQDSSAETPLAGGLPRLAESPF

Turning to `CCCCCCCCCCCCCCCC(=O)N[C@@H](CCC(=O)NCCCC[C@H](NC(=O)[C@H](CO)NC(=O)[C@H](CC(=O)O)NC(=O)[C@H](CC(C)C)NC(=O)[C@H](Cc1ccc(O)cc1)NC(=O)[C@H](CCCCN)NC(=O)[C@H](CO)NC(=O)[C@H](Cc1ccc(O)cc1)NC(=O)[C@H](CC(=O)O)NC(=O)[C@H](CO)NC(=O)[C@@H](NC(=O)[C@H](Cc1ccccc1)NC(=O)[C@@H](NC(=O)CNC(=O)[C@H](CCC(N)=O)NC(=O)C(C)(C)NC(=O)[C@@H](N)Cc1c[nH]cn1)[C@@H](C)O)[C@@H](C)O)C(=O)N[C@@H](C)C(=O)N[C@@H](C)C(=O)N[C@@H](Cc1c[nH]cn1)C(=O)N[C@@H](CC(=O)O)C(=O)N[C@@H](Cc1ccccc1)C(=O)N[C@H](C(=O)N[C@@H](CCC(=O)O)C(=O)N[C@@H](Cc1c[nH]c2ccccc12)C(=O)N[C@@H](CC(C)C)C(=O)N[C@@H](CCC(=O)O)C(=O)N[C@@H](CO)C(=O)N[C@@H](C)C(N)=O)C(C)C)C(=O)O` [Compound 5, H-H-Aib-QGTFTSDYSKYLDS-K(Hexadecanoyl-isoGlu)-AAHDFVEWLESA-NH2] (H-H[Aib]QGTFTSDYSKYLDSK([γGlu-Palmitoyl])AAHDFVEWLESA-NH2), in data set [1], the EC50 came to 0.16 nM and the “Ratio GLP-1/Glucagon” value is recorded as 0.35. In addition, in data set [2] (IV), the clearance is 0.185 mL/min/kg and the half-life was 4 h. Moreover, in data set [2] (SC), the Tmax came to 4 h, the bioavailability worked out at 81%, the MRT is 7.6 h and the half-life was 3.8 h. The EC50 in data set [3] is 0.46 nM. The “AUC (% Ctrl)” value in data set [4] is on record as 46 % Ctrl.
Take `CCCCCCCCCCCCCCCC(=O)N[C@@H](CCC(=O)NCCCC[C@H](NC(=O)[C@H](CO)NC(=O)[C@H](CC(=O)O)NC(=O)[C@H](CC(C)C)NC(=O)[C@H](Cc1ccc(O)cc1)NC(=O)[C@H](CCCNC(=N)N)NC(=O)[C@H](CO)NC(=O)[C@H](Cc1ccc(O)cc1)NC(=O)[C@H](CC(=O)O)NC(=O)[C@H](CO)NC(=O)[C@@H](NC(=O)[C@H](Cc1ccccc1)NC(=O)[C@@H](NC(=O)CNC(=O)[C@H](CCC(N)=O)NC(=O)[C@H](CO)NC(=O)[C@@H](N)Cc1c[nH]cn1)[C@@H](C)O)[C@@H](C)O)C(=O)N[C@@H](C)C(=O)N[C@@H](C)C(=O)N[C@@H](CCC(=O)O)C(=O)N[C@@H](CC(=O)O)C(=O)N[C@@H](Cc1ccccc1)C(=O)N[C@H](C(=O)N[C@@H](CCC(=O)O)C(=O)N[C@@H](Cc1c[nH]c2ccccc12)C(=O)N[C@@H](CC(C)C)C(=O)N[C@@H](CC(C)C)C(=O)N[C@@H](CCCNC(=N)N)C(=O)N[C@@H](C)C(N)=O)C(C)C)C(=O)O` [Compound 6, H-HSQGTFTSDYSRYLDS-K(Hexadecanoyl-isoGlu)-AAEDFVEWLLRA-NH2] (H-HSQGTFTSDYSRYLDSK([γGlu-Palmitoyl])AAEDFVEWLLRA-NH2): in data set [1], the EC50 was determined as 0.35 nM and the “Ratio GLP-1/Glucagon” value is on record as 0.76. Besides, in data set [2] (IV), the clearance was 0.157 mL/min/kg and the half-life is 3.7 h. In data set [2] (SC), the Tmax was determined as 4 h, the bioavailability came out at 47%, the MRT was determined as 10.6 h and the half-life was 4.3 h. Moreover, in data set [3], the EC50 is 0.46 nM. The “AUC (% Ctrl)” value in data set [4] is reported as 50 % Ctrl.
For `CCCCCCCCCCCCCCCC(=O)N[C@@H](CCC(=O)NCCCC[C@H](NC(=O)[C@H](CO)NC(=O)[C@H](CC(=O)O)NC(=O)[C@H](CC(C)C)NC(=O)[C@H](Cc1ccc(O)cc1)NC(=O)[C@H](CCCCN)NC(=O)[C@H](CO)NC(=O)[C@H](Cc1ccc(O)cc1)NC(=O)[C@H](CC(=O)O)NC(=O)[C@H](CO)NC(=O)[C@@H](NC(=O)[C@H](Cc1ccccc1)NC(=O)[C@@H](NC(=O)CNC(=O)[C@H](CCC(N)=O)NC(=O)[C@H](CO)NC(=O)[C@@H](N)Cc1c[nH]cn1)[C@@H](C)O)[C@@H](C)O)C(=O)N[C@@H](C)C(=O)N[C@@H](C)C(=O)N[C@@H](CCC(=O)O)C(=O)N[C@@H](CC(=O)O)C(=O)N[C@@H](Cc1ccccc1)C(=O)N[C@H](C(=O)N[C@@H](CCC(=O)O)C(=O)N[C@@H](Cc1c[nH]c2ccccc12)C(=O)N[C@@H](CC(C)C)C(=O)N[C@@H](CC(C)C)C(=O)N[C@@H](CCCNC(=N)N)C(=O)N[C@@H](C)C(N)=O)C(C)C)C(=O)O` [Compound 7, H-HSQGTFTSDYSKYLDS-K(Hexadecanoyl-isoGlu)-AAEDFVEWLLRA-NH2] (H-HSQGTFTSDYSKYLDSK([γGlu-Palmitoyl])AAEDFVEWLLRA-NH2), in data set [1], the EC50 came out at 0.27 nM and the “Ratio GLP-1/Glucagon” value was 0.60. In data set [2] (IV), the clearance is 0.22 mL/min/kg and the half-life was 5.5 h. Also, in data set [2] (SC), the Tmax stood at 4 h, the bioavailability was found to be 75%, the MRT was 12.8 h and the half-life was 8.6 h. Further, the EC50 in data set [3] came to 0.45 nM. The “AUC (% Ctrl)” value in data set [4] came to 57 % Ctrl.
For the compound `CCCCCCCCCCCCCCCC(=O)N[C@@H](CCC(=O)NCCCC[C@H](NC(=O)[C@H](CO)NC(=O)[C@H](CC(=O)O)NC(=O)[C@H](CC(C)C)NC(=O)[C@H](Cc1ccc(O)cc1)NC(=O)[C@H](CCCCN)NC(=O)[C@H](CO)NC(=O)[C@H](Cc1ccc(O)cc1)NC(=O)[C@H](CC(=O)O)NC(=O)[C@H](CO)NC(=O)[C@@H](NC(=O)[C@H](Cc1ccccc1)NC(=O)[C@@H](NC(=O)CNC(=O)[C@H](CCC(N)=O)NC(=O)[C@H](CO)NC(=O)[C@@H](N)Cc1c[nH]cn1)[C@@H](C)O)[C@@H](C)O)C(=O)N[C@@H](C)C(=O)N[C@@H](C)C(=O)N[C@@H](Cc1c[nH]cn1)C(=O)N[C@@H](CC(=O)O)C(=O)N[C@@H](Cc1ccccc1)C(=O)N[C@H](C(=O)N[C@@H](CCC(=O)O)C(=O)N[C@@H](Cc1c[nH]c2ccccc12)C(=O)N[C@@H](CC(C)C)C(=O)N[C@@H](CC(C)C)C(=O)N[C@@H](CO)C(N)=O)C(C)C)C(=O)O` [Compound 8, H-HSQGTFTSDYSKYLDS-K(Hexadecanoyl-isoGlu)-AAHDFVEWLLS-NH2] (H-HSQGTFTSDYSKYLDSK([γGlu-Palmitoyl])AAHDFVEWLLS-NH2), in data set [1], the EC50 was determined as 0.41 nM and the “Ratio GLP-1/Glucagon” value came to 1.41. In addition, in data set [2] (IV), the clearance is 0.128 mL/min/kg and the half-life was 3.9 h. In data set [2] (SC), the Tmax worked out at 4 h, the bioavailability turned out to be 42%, the MRT turned out to be 8.1 h and the half-life is 4.1 h. Also, the EC50 in data set [3] amounted to 0.29 nM. Further, the “AUC (% Ctrl)” value in data set [4] was 50 % Ctrl.
